Test results published in publication PMC7018657, “Molecular Determinants of Substrate Selectivity of a Pneumococcal Rgg-Regulated Peptidase-Containing ABC Transporter” (mBio, 2020).

Experiments:
Format in all cases: cell-based, Streptococcus pneumoniae R6
Conditions in all cases: signal sequence (wild type or mutated) fused to BlpI-HiBiT cargo peptide; R6; CDM+; CSP, BlpC and RtgSA-C10 treatment; 3 independent experiments
BlpAB = assay: HiBiT peptide secretion assay, BlpAB+ strain
Description: (§1) FIG 5 RtgAB secretes different GG peptides from ComAB and BlpAB. R6 ComAB^−/BlpAB^−/RtgAB^− and single-transporter-positive ComAB^+, BlpAB^+, and RtgAB^+ strains expressing RtgC-HiBiT (A), RtgG-HiBiT (B), or BlpI-HiBiT (C) were grown in CDM+ to an OD620 of 0.05 and treated with 200 ng/ml CSP, 200 ng/ml BlpC, and 20 nM RtgSA-C10. Samples were taken every 30 min, and extracellular HiBiT signal was quantified. Data are presented as fold change values relative to the ComAB^−/BlpAB^−/RtgAB^− control. Red dashed lines represent fold change = 1 (no difference versus the control). Plots show means ± SEs from 3 independent experiments.
(§2) Cells were inoculated from starter cultures to an OD620 of 0.005 and grown in CDM+. […] Samples were taken for HiBiT quantification at appropriate time points. […] HiBiT signal was quantified by mixing samples with HiBiT extracellular detection reagent (N2421; Promega) at a 1:1 ratio and reading luminescence with a Synergy HTX plate reader. Samples were also taken for quantification of intracellular peptide; for endpoint assays, they were taken concurrently with the extracellular samples, and for time course assays, they were taken at the last time point. Extracellular peptide was removed from these samples by proteinase K digestion, and then the cells were lysed and HiBiT signal was quantified as described above. […]
(§3) and read 5 min following reagent addition. […]

ComAB = assay: HiBiT peptide secretion assay, ComAB+ strain
Description: as §1, §2, §3

RtgAB = assay: HiBiT peptide secretion assay, RtgAB+ strain
Description: FIG 3 RtgAB secretes RtgC and RtgG. R6 ComAB^−/BlpAB^−/RtgAB^− and ComAB^−/BlpAB^−/RtgAB^+ strains expressing RtgC-HiBiT (A) or RtgG-HiBiT (B) were grown in CDM+ to an OD620 of 0.05 and treated with 200 ng/ml CSP, 200 ng/ml BlpC, and 20 nM RtgSA-C10. CSP and BlpC were added to allow for comparison with ComAB^+ and BlpAB^+ strains in later experiments. Samples were taken every 30 min, and extracellular HiBiT signal was quantified. Data are presented as fold change values relative to the ComAB^−/BlpAB^−/RtgAB^− control. Red dashed lines represent fold change = 1 (no difference versus the control). […]
FIG 5 RtgAB secretes different GG peptides from ComAB and BlpAB. […] Samples were taken every 30 min, and extracellular HiBiT signal was quantified. […]
as §2, with “point.” for “point. Extracellular peptide was removed from these samples by proteinase K digestion, and then the cells were lysed and HiBiT signal was quantified as described above.”
as §3

Sequence: MELILPNNYVDLEQEEMMYLDGG [SSRtgG]
- secretion through BlpAB, BlpI cargo peptide (BlpAB): preventing its secretion through ComAB and BlpAB
- secretion through ComAB, BlpI cargo peptide (ComAB): preventing its secretion through ComAB and BlpAB
- secretion through RtgAB, BlpI cargo peptide (RtgAB): promotes secretion of the BlpI cargo peptide through RtgAB
